{
  "source": "patent US8030487B2",
  "about": "“2-amino—5-substituted pyrimidine inhibitors” (TargeGen, Inc., priority 2006, dated 2011)",
  "key": {"[1]": {"system": "retinal edema induced by intravitreal injection of VEGF", "assay": "Retinal edema (Method #2), induced by intravitreal VEGF", "assay_type": "in vivo, rat", "conditions": "LE rats, 1% solution topical, vehicle 0.363", "protocol": "Retinal Edema (Method #2) Retinal edema was induced in rats by intravitreal injection of vascular endothelial growth factor (VEGF). LE rats were dosed topically (bilaterally) with either test compound or vehicle (10 μL eyedrops), followed by intravitreal injections of either saline (left eye) or VEGF (right eye). Five hours later, animals were again dosed topically with test compound or vehicle, and then injected i.p. with sodium fluorescein followed 45 later by ocular fluorophotometry to detect fluorescein leakage into the retina and vitreous chamber. EI was calculated according to the following formula: EI=(Fod−Fos)/Fos, where Fod=AUC value for fluorescence in the right eye, and Fos=AUC value for fluorescence in the left (saline injected) eye."}, "[2]": {"system": "choroidal neovascularization", "assay": "Choroidal neovascularization induced by laser injury", "assay_type": "in vivo, mouse", "conditions": "C57BL/6 mice, 1% solution topical twice per day, 14 days; vehicle 16,192", "protocol": "Choroidal Neovascularization Choroidal neovasculariztion was induced in mice by laser injury. Laser photocoagulation was performed on the choroids of C57BL/6 mice, after which mice were dosed topically with test compound or vehicle for a total of 14 days (10 μL applied per eye twice per day). At the end of the 2 week dosing period, mice were perfused with fluorescein-labeled dextran (2×10^6 average molecular weight), eyes were removed and fixed in formalin, and choroidal flatmounts prepared. Laser injury sites were photographed by fluorescence microscopy and digital images were used to quantify the area of choroidal neovascularization."}, "[3]": {"system": "retinal neovascularization", "assay": "Retinal neovascularization, normoxia-hyperoxia-normoxia mouse pups", "assay_type": "in vivo", "conditions": "C57BL/6 mouse pups", "protocol": "Retinal Neovascularization Retinal neovascularization was induced in mouse pups by cyclic exposure to normoxia-hyperoxia-normoxia. C57BL/6 mouse pups were exposed to hyperoxia (75% O2 environment) for 5 days starting at from postnatal day 7, then returned to a normoxic environment. Dosing was also initiated at this time (bilateral topical application of test compound or vehicle as a 10 μL eyedrops twice per day). After 5 days of dosing, retinal wholemounts were prepared and stained with a fluorescently labeled lectin that specifically stains murine endothelium. Digital images were captured by fluorescence microscopy and used to quantify total vascular area."}, "[4]": {"system": "retinal edema induced by retinal ischemia", "assay": "Retinal edema (Method #1), induced by retinal ischemia", "assay_type": "in vivo, rat", "conditions": "LE rats, 1% solution, topical bid × 5, retinal vein thrombosis; vehicle 5.2", "protocol": "Retinal Edema (Method #1) Retinal edema was induced in rats by retinal ischemia. LE rats were injected i.v. with the photosensitizing dye Rose Bengal, followed by laser stimulation of a single retinal vein (in the right eye only) so as to induce thrombosis and thus retinal ischemia. Animals were dosed topically with either test compound or vehicle (10 μL eyedrops twice per day bilaterally) for a total of 5 dosings. Retinal edema was then measured by injecting animals i.p. with sodium fluorescein followed 45 later by ocular fluorophotometry to detect fluorescein leakage into the retina and vitreous chamber. An Edema Index (EI) was calculated according to the following formula: EI=(Fod−Fos)/Fos, where Fod=AUC value for fluorescence in the right eye, and Fos=AUC value for fluorescence in the left (treated but not thrombosed) eye."}},
  "data": [
    {"smiles": "O=C(Nc1ccc(Cl)c(C(=O)Nc2cnc(Nc3ccc(OCCN4CCCC4)cc3)nc2)c1)c1cccc(C(F)(F)F)c1", "note": "[Compound XL, 2-Chloro-N-{2-[4-(2-Pyrrolidin-1-yl-ethoxy)-Phenylamino]-Pyrimidin-5-yl}-5-(3-Trifluoromethyl-Benzoylamino)-Benzamide]", "values": [
      {"measurement": "EI", "setting": "[1]", "value": 0.110},
      {"measurement": "Area (μm^2) of choroidal neovascularization", "setting": "[2]", "value": "9,388 μm^2"},
      {"measurement": "reduction in retinal vascularization compared to vehicle", "setting": "[3]; 0.1% solution, twice per day, 5 days, P=0.009", "value": 29, "unit": "%"},
      {"measurement": "% Reduction vs. Vehicle (retinal vascularization)", "setting": "[3]; 1% of compound XL (table), topical bid × 5", "value": 29, "unit": "%"},
      {"measurement": "Area (mm^2), total retinal vascular area", "setting": "[3]; 1% of compound XL (table), topical bid × 5, vehicle 8.269", "value": 6.429, "unit": "mm^2"},
      {"measurement": "Edema Index", "setting": "[4]", "value": 2.3}
    ]}
  ]
}
